# Assay results as given in patent US8802700B2 (Vertex Pharmaceuticals Incorporated, priority 2010, dated 2014).
# Biological target: T1, ΔF508-CFTR (Homo sapiens, UniProt P13569, DEL508-508)
# T1 construct: expressed in transfected cells
# Assay: Membrane potential optical assay (FRET voltage-sensor dyes, VIPR), identification of potentiator compounds
# Format: cell-based
# Conditions: Table 3; assay not given
# Summary of the method: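 Potentiator screen measured membrane potential via FRET between CC2-DMPE donor and DiSBAC2(3), read on VIPR II. Compound went in with the first addition of chloride-free gluconate bath; cells were ΔF508-CFTR-expressing NIH3T3 mouse fibroblasts, temperature-corrected at 27 °C for 24 h.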
# T1 sequence (P13569 with tags, fused parts or gaps DEL508-508): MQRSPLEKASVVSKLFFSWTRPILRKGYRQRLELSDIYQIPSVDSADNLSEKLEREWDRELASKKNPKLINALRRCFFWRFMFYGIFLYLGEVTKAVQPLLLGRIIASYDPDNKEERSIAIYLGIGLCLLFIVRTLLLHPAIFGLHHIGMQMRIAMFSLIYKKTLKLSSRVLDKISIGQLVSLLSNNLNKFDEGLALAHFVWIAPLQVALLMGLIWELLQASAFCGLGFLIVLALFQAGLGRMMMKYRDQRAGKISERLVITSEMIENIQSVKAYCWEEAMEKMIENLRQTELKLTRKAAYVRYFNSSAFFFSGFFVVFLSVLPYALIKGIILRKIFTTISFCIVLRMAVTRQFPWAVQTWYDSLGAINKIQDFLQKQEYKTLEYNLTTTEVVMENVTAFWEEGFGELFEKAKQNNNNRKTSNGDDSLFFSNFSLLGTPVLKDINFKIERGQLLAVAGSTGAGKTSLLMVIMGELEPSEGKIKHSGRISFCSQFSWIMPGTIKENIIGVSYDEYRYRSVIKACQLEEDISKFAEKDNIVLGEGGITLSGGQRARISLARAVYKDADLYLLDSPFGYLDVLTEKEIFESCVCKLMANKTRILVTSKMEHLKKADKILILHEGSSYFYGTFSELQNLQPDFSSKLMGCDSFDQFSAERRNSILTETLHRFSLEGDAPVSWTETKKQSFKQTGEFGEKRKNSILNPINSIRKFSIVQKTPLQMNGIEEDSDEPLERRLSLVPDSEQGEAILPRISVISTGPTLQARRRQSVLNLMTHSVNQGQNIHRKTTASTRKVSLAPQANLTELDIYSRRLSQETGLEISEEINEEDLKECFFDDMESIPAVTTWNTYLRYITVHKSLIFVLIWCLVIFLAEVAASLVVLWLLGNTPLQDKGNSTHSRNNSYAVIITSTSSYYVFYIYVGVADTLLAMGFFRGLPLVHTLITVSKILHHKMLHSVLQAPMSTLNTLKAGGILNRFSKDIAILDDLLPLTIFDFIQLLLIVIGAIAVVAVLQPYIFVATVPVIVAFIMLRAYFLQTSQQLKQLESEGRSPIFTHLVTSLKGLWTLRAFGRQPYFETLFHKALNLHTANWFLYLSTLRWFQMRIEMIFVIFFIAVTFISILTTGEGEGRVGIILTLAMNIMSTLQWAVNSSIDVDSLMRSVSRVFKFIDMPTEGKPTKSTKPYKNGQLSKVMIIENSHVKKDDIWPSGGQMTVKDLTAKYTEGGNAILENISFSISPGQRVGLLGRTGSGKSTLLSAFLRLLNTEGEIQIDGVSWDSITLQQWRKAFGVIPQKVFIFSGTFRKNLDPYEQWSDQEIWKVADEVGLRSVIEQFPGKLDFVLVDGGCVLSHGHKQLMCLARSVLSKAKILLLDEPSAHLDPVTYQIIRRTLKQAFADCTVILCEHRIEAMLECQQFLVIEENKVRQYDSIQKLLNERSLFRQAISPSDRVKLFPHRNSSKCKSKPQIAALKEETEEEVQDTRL
row,EC50 [µM],Compound
1,10 to 25,"CC(C)(C)c1cc(C(C)(C)C)c(NC(=O)c2c[nH]c3ccc(C(F)(F)F)cc3c2=O)cc1O [Compound 515, N-(5-hydroxy-2,4-ditert-butyl-phenyl)-4-oxo-6-(trifluoromethyl)-1H-quinoline-3-carboxamide]"
2,< 10,"CS(=O)(=O)Nc1cc(NC(=O)c2c[nH]c3ccccc3c2=O)cc(C(F)(F)F)c1 [Compound 441, N-[3-methylsulfonylamino-5-(trifluoromethyl)phenyl]-4-oxo-1H-quinoline-3-carboxamide]"

# Same assay, conditions: Table 3; assay not given; read-out: % Activity (% Efficacy, relative efficacy)
row,Emax [%],Compound
1,25 to 100,"CC(C)(C)OC(=O)Nc1ccc(C(C)(C)C)c(NC(=O)c2c[nH]c3ccccc3c2=O)c1 [Compound 353, [3-[(4-oxo-1H-quinolin-3-yl)carbonylamino]-4-tert-butyl-phenyl]aminoformic acid tert-butyl ester]"
2,25 to 100,"CC(C)(C)c1cc(Cl)c(O)cc1NC(=O)c1c[nH]c2ccccc2c1=O [Compound 426, N-(4-chloro-5-hydroxy-2-tert-butyl-phenyl)-4-oxo-1H-quinoline-3-carboxamide]"
3,25 to 100,"O=C(Nc1csc(C(F)(F)F)c1-c1ccccc1)c1c[nH]c2ccccc2c1=O [Compound 708, 4-oxo-N-[4-phenyl-5-(trifluoromethyl)-3-thienyl]-1H-quinoline-3-carboxamide]"
4,25 to 100,"O=C(Nc1ccccc1-c1csc2ccccc12)c1c[nH]c2ccccc2c1=O [Compound 417, N-(2-(benzo[b]thiophen-3-yl)phenyl)-1,4-dihydro-4-oxoquinoline-3-carboxamide]"
5,< 25,"CC(C)(C)c1cc(C(C)(C)C)c(NC(=O)c2c[nH]c3ccc(C(F)(F)F)cc3c2=O)cc1O [Compound 515, N-(5-hydroxy-2,4-ditert-butyl-phenyl)-4-oxo-6-(trifluoromethyl)-1H-quinoline-3-carboxamide]"
6,< 25,"O=C(Nc1ccc(Cl)nc1)c1c[nH]c2ccccc2c1=O [Compound 392, N-(6-chloro-3-pyridyl)-4-oxo-1H-quinoline-3-carboxamide]"
7,25 to 100,"CC(C)(C)c1cc2cc[nH]c2cc1NC(=O)c1c[nH]c2cc(C#N)ccc2c1=O [Compound 558, 7-cyano-4-oxo-N-(5-tert-butyl-1H-indol-6-yl)-1H-quinoline-3-carboxamide]"
8,25 to 100,"CC1(c2cc(F)c(NC(=O)c3cnc4ccccc4c3O)cc2O)CCCCCC1 [Compound 483, N-[2-fluoro-5-hydroxy-4-(1-methylcycloheptyl)-phenyl]-4-hydroxy-quinoline-3-carboxamide]"
9,25 to 100,"COC(=O)[C@@H]1CCCCN1c1ccc(NC(=O)c2c[nH]c3ccccc3c2=O)c(C(F)(F)F)c1 [Compound 715, (S)-methyl 1-(4-(4-oxo-1,4-dihydroquinoline-3-carboxamido)-3-(trifluoromethyl)phenyl)piperidine-2-carboxylate]"
10,25 to 100,"O=C(Nc1ccc(C(F)(F)F)c(O)c1)c1c[nH]c2ccc(F)cc2c1=O [Compound 650, 6-fluoro-N-[3-hydroxy-4-(trifluoromethyl)phenyl]-4-oxo-1H-quinoline-3-carboxamide]"
11,25 to 100,"Cc1ccc(S(=O)(=O)Nc2ccccc2NC(=O)c2c[nH]c3ccccc3c2=O)cc1 [Compound 398, 4-oxo-N-[2-(p-tolylsulfonylamino)phenyl]-1H-quinoline-3-carboxamide]"
12,25 to 100,"CCc1cc(C(C)(C)C)c(O)cc1NC(=O)c1c[nH]c2ccccc2c1=O [Compound 659, N-(2-ethyl-5-hydroxy-4-tert-butyl-phenyl)-4-oxo-1H-quinoline-3-carboxamide]"
13,25 to 100,"O=C(Nc1cc(O)c(C(F)(F)F)cc1F)c1c[nH]c2ccccc2c1=O [Compound 501, N-[2-fluoro-5-hydroxy-4-(trifluoromethyl)phenyl]-4-oxo-1H-quinoline-3-carboxamide]"
14,25 to 100,"CS(=O)(=O)Nc1cc(NC(=O)c2c[nH]c3ccccc3c2=O)cc(C(F)(F)F)c1 [Compound 441, N-[3-methylsulfonylamino-5-(trifluoromethyl)phenyl]-4-oxo-1H-quinoline-3-carboxamide]"
15,25 to 100,"CN(C)c1ccc2[nH]cc(C(=O)Nc3cc(O)c(C(C)(C)C)cc3C(C)(C)C)c(=O)c2c1 [Compound 544, 6-dimethylamino-N-(5-hydroxy-2,4-ditert-butyl-phenyl)-4-oxo-1H-quinoline-3-carboxamide]"
16,25 to 100,"Cc1cccc2[nH]cc(C(=O)Nc3ccc(N4CC[C@@H](C)C4)cc3C(F)(F)F)c(=O)c12 [Compound 613, (R)-5-methyl-N-(4-(3-methylpyrrolidin-1-yl)-2-(trifluoromethyl)phenyl)-4-oxo-1,4-dihydroquinoline-3-carboxamide]"
17,25 to 100,"CC(C)(C)c1c[nH]c2cc(NC(=O)c3c[nH]c4ccc(F)cc4c3=O)ccc12 [Compound 554, 6-fluoro-4-oxo-N-(3-tert-butyl-1H-indol-6-yl)-1H-quinoline-3-carboxamide]"
18,25 to 100,"COc1cccc2[nH]cc(C(=O)Nc3ccc4cc[nH]c4c3)c(=O)c12 [Compound 479, N-(1H-indol-6-yl)-5-methoxy-4-oxo-1H-quinoline-3-carboxamide]"
19,25 to 100,"CC(C)CNC(=O)c1cc2cc[nH]c2cc1NC(=O)c1c[nH]c2ccccc2c1=O [Compound 343, N-[5-(Isobutylcarbamoyl)-1H-indol-6-yl]-4-oxo-1H-quinoline-3-carboxamide]"
20,25 to 100,"CC(C)(C)c1ccc(NC(=O)c2c[nH]c3ccccc3c2=O)cc1O [Compound 428, N-(3-hydroxy-4-tert-butyl-phenyl)-4-oxo-1H-quinoline-3-carboxamide]"
21,< 25,"CCOc1cccc2c(=O)c(C(=O)Nc3cc(O)c(C(C)(C)C)cc3C(C)(C)C)c[nH]c12 [Compound 616, 8-ethoxy-N-(5-hydroxy-2,4-ditert-butyl-phenyl)-4-oxo-1H-quinoline-3-carboxamide]"
22,25 to 100,"CC(C)(C)c1cc(C(C)(C)C)c(NC(=O)c2c[nH]c3c(F)cccc3c2=O)cc1O [Compound 687, 8-fluoro-N-(5-hydroxy-2,4-ditert-butyl-phenyl)-4-oxo-1H-quinoline-3-carboxamide]"
23,25 to 100,"CC(C)c1ccc(-c2cc3cc[nH]c3cc2NC(=O)c2c[nH]c3ccccc3c2=O)cc1 [Compound 342, N-[5-(4-isopropylphenyl)-1H-indol-6-yl]-4-oxo-1H-quinoline-3-carboxamide]"
24,25 to 100,"CC(C)(C)c1cc2cc[nH]c2cc1NC(=O)c1c[nH]c2ccccc2c1=O [Compound 381, 4-oxo-N-(5-tert-butyl-1H-indol-6-yl)-1H-quinoline-3-carboxamide]"

# Further lines, the molecule ahead of its results:
row,Compound,Emax [%]
1,"O=C(Nc1ccc2c(c1)OC(F)(F)O2)c1c[nH]c2ccccc2c1=O [Compound 66, N-(2,2-difluorobenzo[1,3]dioxol-5-yl)-4-oxo-1H-quinoline-3-carboxamide]",25 to 100
2,"O=C(Nc1ccc2nc(-c3ccccc3)[nH]c2c1)c1c[nH]c2ccccc2c1=O [Compound 73, 4-oxo-N-(2-phenyl-3H-benzoimidazol-5-yl)-1H-quinoline-3-carboxamide]",< 25
3,"O=C(Nc1ccccc1-c1ccc(Cl)c(Cl)c1)c1c[nH]c2ccccc2c1=O [Compound 85, N-[2-(3,4-dichlorophenyl)phenyl]-4-oxo-1H-quinoline-3-carboxamide]",25 to 100
4,"CCc1ccc(NC(=O)c2c[nH]c3ccccc3c2=O)cc1NC(C)=O [Compound 149, N-(3-acetylamino-4-ethyl-phenyl)-4-oxo-1H-quinoline-3-carboxamide]",25 to 100
5,"O=C(Nc1ccc(Cl)cn1)c1c[nH]c2ccccc2c1=O [Compound 170, N-(5-chloro-2-pyridyl)-4-oxo-1H-quinoline-3-carboxamide]",< 25
6,"NC(=O)c1ccccc1NC(=O)c1c[nH]c2ccccc2c1=O [Compound 331, N-(2-carbamoylphenyl)-4-oxo-1H-quinoline-3-carboxamide]",< 25
7,"Cc1cccc(NC(=O)c2c[nH]c3ccccc3c2=O)n1 [Compound 173, N-(6-methyl-2-pyridyl)-4-oxo-1H-quinoline-3-carboxamide]",< 25
8,"Cc1cc(C2C3CC4CC(C3)CC2C4)c(O)cc1NC(=O)c1c[nH]c2ccccc2c1=O (stereo not shown) [Compound 208, N-[4-(2-adamantyl)-5-hydroxy-2-methyl-phenyl]-4-oxo-1H-quinoline-3-carboxamide]",25 to 100
9,"C#Cc1ccc(NC(=O)c2c[nH]c3ccccc3c2=O)cc1 [Compound 332, N-(4-ethynylphenyl)-4-oxo-1H-quinoline-3-carboxamide]",25 to 100
10,"CN(c1ccc(F)cc1)S(=O)(=O)c1ccc2[nH]cc(C(=O)Nc3cc(O)c(C(C)(C)C)cc3C(C)(C)C)c(=O)c2c1 [Compound 137, 6-[(4-fluorophenyl)-methyl-sulfamoyl]-N-(5-hydroxy-2,4-ditert-butyl-phenyl)-4-oxo-1H-quinoline-3-carboxamide]",25 to 100
11,"Nc1cc(NC(=O)c2c[nH]c3ccccc3c2=O)ccc1OC(F)(F)F [Compound 58, N-[3-amino-4-(trifluoromethoxy)phenyl]-4-oxo-1H-quinoline-3-carboxamide]",25 to 100
12,"COc1ccc(C(C)(C)C)cc1NC(=O)c1c[nH]c2ccccc2c1=O [Compound 211, N-(2-methoxy-5-tert-butyl-phenyl)-4-oxo-1H-quinoline-3-carboxamide]",25 to 100
13,"CC(C)c1cccc(-c2ccccc2NC(=O)c2c[nH]c3ccccc3c2=O)c1 [Compound 290, N-[2-(3-isopropylphenyl)phenyl]-4-oxo-1H-quinoline-3-carboxamide]",25 to 100
14,"CC1CCN(S(=O)(=O)c2ccc3[nH]cc(C(=O)Nc4cc5[nH]ccc5cc4C(C)(C)C)c(=O)c3c2)CC1 [Compound 51, 6-[(4-methyl-1-piperidyl)sulfonyl]-4-oxo-N-(5-tert-butyl-1H-indol-6-yl)-1H-quinoline-3-carboxamide]",25 to 100
15,"CC(C)(C)c1cc(F)c(NC(=O)c2c[nH]c3ccc(F)cc3c2=O)cc1O [Compound 319, 6-fluoro-N-(2-fluoro-5-hydroxy-4-tert-butyl-phenyl)-4-oxo-1H-quinoline-3-carboxamide]",25 to 100
16,"CC(C)(C)OC(=O)N1CCCc2ccc(NC(=O)c3c[nH]c4ccccc4c3=O)cc21 [Compound 183, 7-[(4-oxo-1H-quinolin-3-yl)carbonylamino]-1,2,3,4-tetrahydroquinoline-1-carboxylic acid tert-butyl ester]",25 to 100
17,"COc1ccccc1NC(=O)c1c[nH]c2ccccc2c1=O [Compound 80, N-(2-methoxyphenyl)-4-oxo-1H-quinoline-3-carboxamide]",25 to 100
